Measured values from US20090142811A1, “Discovery, Cloning and Purification of Thermococccus sp. (Strain 9 Degrees N-7) Dna Ligase” (New England Biolabs, Inc., priority 2005, published 2009).

Biological target: T1, Thermococcus sp. (strain 9° N-7) DNA ligase, clone B2, SEQ ID NO:15 (Thermococcus nautili, UniProt W8P6M3)
T1 construct: E. coli BL21(DE3)-RIL; purified
T1 sequence (W8P6M3 with tags, fused parts or gaps): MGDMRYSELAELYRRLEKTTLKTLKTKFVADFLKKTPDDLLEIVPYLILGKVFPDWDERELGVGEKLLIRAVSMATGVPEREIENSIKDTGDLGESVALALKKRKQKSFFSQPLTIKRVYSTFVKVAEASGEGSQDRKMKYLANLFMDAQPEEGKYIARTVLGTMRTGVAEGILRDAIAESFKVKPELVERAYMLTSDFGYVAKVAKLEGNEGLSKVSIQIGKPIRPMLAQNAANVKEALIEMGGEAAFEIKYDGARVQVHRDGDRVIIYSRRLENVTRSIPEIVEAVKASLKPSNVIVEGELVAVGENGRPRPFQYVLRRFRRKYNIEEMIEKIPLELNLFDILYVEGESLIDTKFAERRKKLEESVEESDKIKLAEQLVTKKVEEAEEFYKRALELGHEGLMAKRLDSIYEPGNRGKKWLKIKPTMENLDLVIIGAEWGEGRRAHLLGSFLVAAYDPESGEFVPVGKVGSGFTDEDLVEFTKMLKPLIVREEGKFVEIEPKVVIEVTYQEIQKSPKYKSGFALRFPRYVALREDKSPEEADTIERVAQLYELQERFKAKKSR
Assay: Km for ATP of purified Thermococcus sp. (strain 9° N-7) DNA ligase (ligation of lambda DNA)
Type: biochemical
Details: typical assay: predigested lambda DNA substrate, 45° C.; recommended 10 mM Tris-HCl pH 7.5, 2.5 mM MgCl2, 2.5 mM DTT
Protocol: The recommended reaction conditions are:
The typical substrate for assaying activity at 45° C. is lambda DNA. Appropriately digested lambda DNA can reveal the state of ligation of the 12-base extension at the termini of lambda DNA. We typically used either a HindIII or BstEII predigested lambda DNA. Analysis of the ligation was performed on agarose gel electrophoresis.

## Nc1ncnc2c1ncn2[C@@H]1O[C@H](COP(=O)(O)OP(=O)(O)OP(=O)(O)O)[C@@H](O)[C@H]1O [ATP]
  Km: < 100 µM
